Measurements as given in patent publication US6410576B1, “Thiazolidine derivatives” (Santen Pharmaceutical Co., Ltd., priority 1998, dated 2002).
Counter-ions that a name gives are not always drawn.

Tests used:
[1] = molecular target: T1, chymase extracted from a dog cardiac tissue (Canis lupus familiaris, UniProt P21842); assay: Chymase inhibitory effect (liberation of His-Leu from angiotensin I, fluorescence intensity); assay type: biochemical; settings: angiotensin I substrate, 37° C. for one hour, pH 8 reaction buffer; read-out: IC50 (concentration required to inhibit the chymase enzymatic activity by 50%)
T1 construct: a heart is enucleated, and left ventricle is separated; from tissue; host or cells: beagle heart, left ventricle
T1 sequence (P21842 22-249): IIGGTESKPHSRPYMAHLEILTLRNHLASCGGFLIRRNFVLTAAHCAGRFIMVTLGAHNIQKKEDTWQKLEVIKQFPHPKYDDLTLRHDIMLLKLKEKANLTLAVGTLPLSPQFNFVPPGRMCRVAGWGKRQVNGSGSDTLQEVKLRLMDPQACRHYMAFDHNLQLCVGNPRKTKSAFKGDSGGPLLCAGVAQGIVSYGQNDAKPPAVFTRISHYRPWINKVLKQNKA
Excerpt: Chymase (enzyme) causes angiotensin I (substrate) to liberate a dipeptide (His-Leu) by the enzyme reaction with the substrate. It was reported that an enzymatic activity of chymase can be measured by measuring fluorescence intensity of the resulting peptide (Biochem. Biophys. Res. Com., 149 (3) 1186 (1987)). Since drugs having chymase inhibitory activities suppress this liberation of the dipeptide, the chymase inhibitory activities of the drugs can be measured by measuring fluorescence intensity. In the present pharmacological test, chymase inhibitory effects of the present compounds were studied by using chymase extracted from a dog cardiac tissue (J. Biol. Chem., 265 (36), 22348 (1990)).
1. A beagle is killed by drawing blood under Nembutal anesthesia, a heart is enucleated, and left ventricle is separated.
2. This left ventricle is finely minced, and the tissue weight is measured.
3. A 0.02 M Tris-HCl buffer (pH 7.4) is added to the tissue in an amount of 10 times by volume the tissue weight. This mixture is homogenized at 8,000 rpm for 20 seconds and then centrifuged at 4° C. and 21,000 rpm for 30 minutes, and the resulting supernatant is discarded.
(§1) 4. The same procedure as the above 3 is repeated twice for the residue. Then, a 0.02 M Tris-HCl buffer (pH 7.4) containing 1% Triton X-100 and 0.01 M potassium chloride is added to the residue in an amount of 10 times by volume the amount of the residue. This mixture is homogenized at 8,000 rpm for 20 seconds, then incubated at 4° C. for one hour and centrifuged at 21,000 rpm for 30 minutes, and the supernatant is discarded.
as §1, with “5. A” for “4. The same procedure as the above 3 is repeated twice for the residue. Then, a”, “0.5” for “0.01”
6. A 0.02 M Tris-HCl buffer (pH 7.4) containing 1% Triton X-100 and 2.0 M potassium chloride is added to the residue in an amount of 10 times the amount of the residue. This mixture is homogenized at 8,000 rpm for 20 seconds, then incubated at 4° C. for one hour and centrifuged at 21,000 rpm for 30 minutes. The obtained supernatant is used as a chymase enzyme solution.
Tris-HCl and disodium ethylenediaminetetraacetate are dissolved in water so that their concentrations are 92.3 mM and 12.0 mM respectively to prepare a reaction buffer adjusted to pH 8.
Angiotensin I is dissolved in water to prepare a 1.54 mM substrate solution.
A test compound is dissolved in dimethyl sulfoxide to prepare 3.0×10^−3 M, 3.0×10^−4 M, 3.0×10^−5 M and 3.0×10^−6 M test com solutions.
1. The reaction buffer (32.5 μl), the substrate solution (75.0 μl), the chymase enzyme solution (37.5 μl) and the test compound solution (5 μl) are mixed.
2. The obtained mixture is incubated at 37° C. for one hour.
3. To the mixture is added 15% trichloroacetic acid (225 μl), and the whole is centrifuged at 4° C. and 14,000 rpm for five minutes.
4. The supernatant is taken out. A 1% orthophthalaldehyde/methanol solution (165 μl) is added to 300 μl of this supernatant, and the whole is stirred and allowed to stand at room temperature for 10 minutes.
5. 1.5 M Hydrochloric acid (300 μl) is added to the resulting mixture, and the whole is stirred and centrifuged at 4° C. and 14,000 rpm for two minutes.
6. The supernatant is taken out and irradiated with light having a wavelength of 340 nm, and fluorescence intensity is measured at a wavelength of 455 nm.
The blank of this test is defined as follows. The same procedures as in the above 1 to 6 are repeated provided that a 20 mM Tris-HCl buffer (pH 7.4, 37.5 μl) containing 1% Triton X-100 and 2.0 M potassium chloride is used instead of the chymase enzyme solution (37.5 μl), and dimethyl sulfoxide (5 μl) is used instead of the test compound solution (5 μl) in the above 1. The obtained […] is the blank value. […]

SMILES	melting point [°C]	IC50 [1] [nM]
CC(C)OC(=O)C(=O)[C@H](Cc1ccccc1)NC(=O)[C@@H]1CSC(c2ccccc2)N1C(=O)[C@@H](NC(=O)N(C)CCN)C(C)C (mixture of isomers) (as salt: hydrochloride) [Compound No. 6-2, Isopropyl (3S)-3-[(2RS,4R)-3-[(2S)-2-[[N-(2-aminoethyl)-N-methylamino]carbonyl]amino]-3-methyl-1-oxobutyl]-2-phenyl-1,3-thiazolidin-4-ylcarboxamidol-2-oxo-4-phenylbutyrate hydrochloride]	90	–
CC(C)OC(=O)C(=O)[C@H](Cc1ccccc1)NC(=O)[C@@H]1CSC(c2ccccc2)N1C(=O)[C@@H](NC(=O)N(C)CCN)C(C)C (mixture of isomers) [Compound No. 6-2, Isopropyl (3S)-3-[(2RS,4R)-3-[(2S)-2-[[N-(2-aminoethyl)-N-methylamino]carbonyl]amino]-3-methyl-1-oxobutyl]-2-phenyl-1,3-thiazolidin-4-ylcarboxamidol-2-oxo-4-phenylbutyrate hydrochloride]	–	57
CC(C)OC(=O)C(=O)[C@H](Cc1ccccc1)NC(=O)[C@@H]1CSCN1C(=O)[C@@H](NC(=O)OCc1ccccc1)C(C)C [Compound No. 2-1, Isopropyl (3S)-3-[(4R)-3-[(2S)-3-methyl-1-oxo-2-[[(phenylmethoxy)carbonyl]amino]butyl]-1,3-thiazolidin-4-ylcarboxamido]-2-oxo-4-phenylbutyrate]	–	47
COCC(=O)N[C@H](C(=O)N1CSC[C@H]1C(=O)N[C@@H](Cc1ccccc1)C(=O)C(=O)OC(C)C)C(C)C [Compound No. 2-19, Isopropyl (3S)-3-[(4R)-3-[(2S)-2-[(methoxymethyl)carbonyl]amino-3-methyl-1-oxobutyl]-1,3-thiazolidin-4-ylcarboxamido]-2-oxo-4-phenylbutyrate]	–	56
CC(C)OC(=O)C(=O)[C@H](Cc1ccccc1)NC(=O)[C@@H]1CSCN1C(=O)[C@@H](NC(=O)COc1ccccc1)C(C)C [Compound No. 2-20, Isopropyl (3S)-3-[(4R)-3-[(2S)-3-methyl-1-oxo-2-[[(phenoxylmethyl)carbonyl]amino]butyl]-1,3-thiazolidin-4-ylcarboxamido]-2-oxo-4-phenylbutyrate]	–	44
CC(C)OC(=O)C(=O)[C@H](Cc1ccccc1)NC(=O)[C@@H]1CSCN1C(=O)[C@@H](NC(=O)OC(C)(C)C)C(C)C [Compound No. 2-21, Isopropyl (3S)-3-[(4R)-3-[(2S)-2-(tert-butoxycarbonyl)amino-3-methyl-1-oxobutyl]-1,3-thiazolidin-4-ylcarboxamido]-2-oxo-4-phenylbutyrate]	–	26
CC(C)OC(=O)C(=O)[C@H](Cc1ccccc1)NC(=O)[C@@H]1CSCN1C(=O)[C@@H](NC(=O)N(C)Cc1ccccc1)C(C)C [Compound No. 2-25, Isopropyl (3S)-3-[(4R)-3-[(2S)-3-methyl-2-[[N-methyl-N-(phenylmethyl)amino]carbonyl]amino-1-oxobutyl]-1,3-thiazolidin-4-ylcarboxamido]-2-oxo-4-phenylbutyrate]	–	31
CC(C)OC(=O)C(=O)[C@H](Cc1ccccc1)NC(=O)[C@@H]1CSCN1C(=O)[C@@H](NC(=O)N(C)CCNC(=O)OC(C)(C)C)C(C)C [Compound No. 2-26, Isopropyl (3S)-3-[(4R)-3-[(2S)-2-[[N-[2-[(tert-butoxycarbonyl)amino]ethyl]-N-methylamino]carbonyl]amino-3-methyl-1-oxobutyl]-1,3-thiazolidin-4-ylcarboxamido]-2-oxo-4-phenylbutyrate]	–	12
CC(C)[C@H](NC(=O)OCc1ccccc1)C(=O)N1CSC[C@H]1C(=O)N[C@@H](Cc1ccccc1)C(=O)C(=O)OCc1ccccc1 [Compound No. 2-37, Phenylmethyl (3S)-3-[(4R)-3-[(2S)-3-methyl-1-oxo-2-[[(phenylmethoxy)carbonyl]amino]butyl]-1,3-thiazolidin-4-ylcarboxamido]-2-oxo-4-phenylbutyrate]	–	66
